Consider 21 compounds from patent US10941147B2, “Bicyclic heteroaryl derivatives” (Hoffmann-La Roche Inc., priority 2016, dated 2021).

The assay concerns the target T1, γ-secretase (Homo sapiens, UniProt P49768).
T1 construct: Human neuroglioma H4 cells overexpressing human APP695; endogenous in cells; host or cells: human neuroglioma H4 cells stably overexpressing human APP695 Swedish
Briefly: Cellular γ-secretase assay (inhibition of Aβ42 secretion, AlphaLisa). To be noted: Human neuroglioma H4 cells overexpressing human APP695 Swedish double mutation; 24 hr compound incubation; secreted Aβ42 in supernatant. It counts as cell-based. As to the method:
Description of γ-Secretase Assay
Cellular γ-Secretase Assay
Human neuroglioma H4 cells overexpressing human APP695 with the Swedish double mutation (K595N/M596L) were plated at 30,000 cells/well/100 al in 96-well plates in IMDM media containing 10% FCS, […] Hygromycin B and incubated at 37° C., 5% CO2.
3-4 hr post plating, compounds are a diluted in media and 50 μl is added as 1.5-fold concentrate to achieve the final concentration. Compound incubation is performed for 24 hr. Final doses typically range from 4 μM down to 0.0013 μM in half-log steps resulting in a eight point dose response curve.
Appropriate controls using vehicle only and reference compound were applied to this assay. The final concentration of Me2SO was 0.4%.
After incubation at 37° C., 5% CO2, the supernatant was subjected to quantification of secreted Aβ42 by the means of an AlphaLisa assay kit (Human Amyloid beta 1-42 Kit: Cat #AL203C, Perkin Elmer). 20 μl of the cell culture supernatant was transferred to an assay plate. Then 10 μl of a mixture of the AlphaLisa coupled capture antibody and the biotinylated detection antibody was added and incubated for 3 hours at room temperature while softly shaking the assay plate. After a further addition of 20 μl of the Donor beads the assay plate was incubated for 30 min at room temperature and constant shaking without exposure to direct light. The assay plate was then read on a Paradigm AlphaLisa Reader using the build-in program with excitation at 680 nm and emission at […].
The measured signals were then used to calculate IC50 values for inhibition of Aβ42 secretion by nonlinear regression fit analysis using XLfit 5.3 software (IDBS).
The compound `Cc1cc(N2C[C@H]3CC[C@@H](C2)[C@@H]3Nc2nc3n(n2)CCCC[C@H]3c2ccc(C(F)(F)F)cc2)ncn1` [Example 4, (9S)—N-[(1R,5S)-3-(6-methylpyrimidin-4-yl)-3-azabicyclo[3.2.1]octan-8-yl]-9-[4-(trifluoromethyl)phenyl]-6,7,8,9-tetrahydro-5H-[1,2,4]triazolo[1,5-a]azepin-2-amine] registered a 50% effective concentration (EC50) of 37.4 nM.
Then `Cc1cc(N2C[C@H]3CC[C@@H](C2)[C@@H]3Nc2nc3n(n2)CCCC[C@@H]3c2ccc(F)c(F)c2F)ncn1` [Example 16, (9R)—N-[(1R,5S,8S)-3-(6-methylpyrimidin-4-yl)-3-azabicyclo[3.2.1]octan-8-yl]-9-(2,3,4-trifluorophenyl)-6,7,8,9-tetrahydro-5H-[1,2,4]triazolo[1,5-a]azepin-2-amine], with 7.1 nM; and `Cc1cc(N2C[C@H]3CC[C@@H](C2)[C@@H]3Nc2nc3n(n2)CCCC[C@@H]3c2cccc(C(F)(F)F)c2)ncn1` [Example 13, (9R)—N-[(1R,5S,8S)-3-(6-methylpyrimidin-4-yl)-3-azabicyclo[3.2.1]octan-8-yl]-9-[3-(trifluoromethyl)phenyl]-6,7,8,9-tetrahydro-5H-[1,2,4]triazolo[1,5-a]azepin-2-amine], with 15 nM; and `Cc1cc(N2C[C@H]3CC[C@@H](C2)[C@@H]3Nc2nc3n(n2)CCCCC3c2ccc(Cl)cc2)ncn1` (mixture of isomers) [Example 7, 9-(4-chlorophenyl)-N-[(1R,5S,8S)-3-(6-methylpyrimidin-4-yl)-3-azabicyclo[3.2.1]octan-8-yl]-6,7,8,9-tetrahydro-5H-[1,2,4]triazolo[1,5-a]azepin-2-amine], with 23.4 nM.
In the case of `Cc1cc(N2C[C@H]3CC[C@@H](C2)[C@@H]3Nc2nc3n(n2)CCCC[C@H]3c2ccc(Cl)cc2)ncn1` [Example 8, (9S)-9-(4-chlorophenyl)-N-[(1R,5S,8S)-3-(6-methylpyrimidin-4-yl)-3-azabicyclo[3.2.1]octan-8-yl]-6,7,8,9-tetrahydro-5H-[1,2,4]triazolo[1,5-a]azepin-2-amine], the 50% effective concentration (EC50) was 31.9 nM.
`Cc1cc(N2C[C@H]3CC[C@@H](C2)[C@@H]3Nc2nc3n(n2)CCCCC3c2ccc(C(F)(F)F)cc2)ncn1` (mixture of isomers) [Example 3, N-[(1R,5S,8S)-3-(6-methylpyrimidin-4-yl)-3-azabicyclo[3.2.1]octan-8-yl]-9-[4-(trifluoromethyl)phenyl]-6,7,8,9-tetrahydro-5H-[1,2,4]triazolo[1,5-a]azepin-2-amine] registered a concentration giving a half-maximal response (EC50) of 20.6 nM.
`Cc1cc(N2C[C@H]3CC[C@@H](C2)[C@@H]3Nc2nc3n(n2)CCCCC3c2cccc(C(F)(F)F)c2)ncn1` (mixture of isomers) [Example 11, N-[(1R,5S,8S)-3-(6-methylpyrimidin-4-yl)-3-azabicyclo[3.2.1]octan-8-yl]-9-[3-(trifluoromethyl)phenyl]-6,7,8,9-tetrahydro-5H-[1,2,4]triazolo[1,5-a]azepin-2-amine] came in with an EC50 of 28 nM.
Take `FC(F)(F)c1cc(N2C[C@H]3CC[C@@H](C2)[C@@H]3Nc2nc3n(n2)CCCCC3c2ccc(Cl)cc2)ccn1` (stereo partly drawn) [Example 6, 9-(4-chlorophenyl)-N-[(1R,5S,8S)-3-[2-(trifluoromethyl)-4-pyridyl]-3-azabicyclo[3.2.1]octan-8-yl]-6,7,8,9-tetrahydro-5H-[1,2,4]triazolo[1,5-a]azepin-2-amine]: a half-maximal effect (EC50) was put at 50.6 nM.
With `COc1cc(N2C[C@H]3CC[C@@H](C2)[C@@H]3Nc2nc3n(n2)CCCCC3c2ccc(F)c(F)c2F)ncn1` (stereo partly drawn) [Example 21, N-[(1R,5S,8S)-3-(6-methoxypyrimidin-4-yl)-3-azabicyclo[3.2.1]octan-8-yl]-9-(2,3,4-trifluorophenyl)-6,7,8,9-tetrahydro-5H-[1,2,4]triazolo[1,5-a]azepin-2-amine] the figure was 53.4 nM; with `COc1cc(N2C[C@H]3CC[C@@H](C2)[C@@H]3Nc2nc3n(n2)CCCCC3c2ccc(F)c(F)c2F)ccn1` (stereo partly drawn) [Example 20, N-[(1R,5S,8S)-3-(2-methoxy-4-pyridyl)-3-azabicyclo[3.2.1]octan-8-yl]-9-(2,3,4-trifluorophenyl)-6,7,8,9-tetrahydro-5H-[1,2,4]triazolo[1,5-a]azepin-2-amine], 8.5 nM.
With `FC(F)(F)c1ccc(C2CCCCn3nc(N[C@@H]4[C@@H]5CC[C@H]4CN(c4ccnc(C(F)(F)F)c4)C5)nc32)cc1` (stereo partly drawn) [Example 2, 9-[4-(trifluoromethyl)phenyl]-N-[(1R,5S,8S)-3-[2-(trifluoromethyl)-4-pyridyl]-3-azabicyclo[3.2.1]octan-8-yl]-6,7,8,9-tetrahydro-5H-[1,2,4]triazolo[1,5-a]azepin-2-amine] the figure was 48.4 nM; with `Fc1ccc([C@H]2CCCCn3nc(N[C@@H]4[C@@H]5CC[C@H]4CN(c4cc(Cl)ncn4)C5)nc32)c(F)c1F` [Example 19, (9R)—N-[(1R,5S,8S)-3-(6-chloropyrimidin-4-yl)-3-azabicyclo[3.2.1]octan-8-yl]-9-(2,3,4-trifluorophenyl)-6,7,8,9-tetrahydro-5H-[1,2,4]triazolo[1,5-a]azepin-2-amine], 12.5 nM.
With `Fc1ccc([C@@H]2CCCCn3nc(N[C@@H]4[C@@H]5CC[C@H]4CN(c4cc(Cl)ncn4)C5)nc32)c(F)c1F` [Example 18, (9S)—N-[(1R,5S,8S)-3-(6-chloropyrimidin-4-yl)-3-azabicyclo[3.2.1]octan-8-yl]-9-(2,3,4-trifluorophenyl)-6,7,8,9-tetrahydro-5H-[1,2,4]triazolo[1,5-a]azepin-2-amine] the figure was 12.4 nM.
`Fc1ccc(C2CCCCn3nc(N[C@@H]4[C@@H]5CC[C@H]4CN(c4ccnc(C(F)(F)F)c4)C5)nc32)c(F)c1F` (stereo partly drawn) [Example 1, N-[(1R,5S,8S)-3-[2-(trifluoromethyl)-4-pyridyl]-3-azabicyclo[3.2.1]octan-8-yl]-9-(2,3,4-trifluorophenyl)-6,7,8,9-tetrahydro-5H-[1,2,4]triazolo[1,5-a]azepin-2-amine] yielded an EC50 of 34.6 nM.
With `Cc1ncnc(N2C[C@H]3CC[C@@H](C2)[C@@H]3Nc2nc3n(n2)CCCCC3c2ccc(F)c(F)c2F)c1F` (stereo partly drawn) [Example 22, N-[(1R,5S,8S)-3-(5-fluoro-6-methyl-pyrimidin-4-yl)-3-azabicyclo[3.2.1]octan-8-yl]-9-(2,3,4-trifluorophenyl)-6,7,8,9-tetrahydro-5H-[1,2,4]triazolo[1,5-a]azepin-2-amine] the figure was 30.3 nM; with `Cc1cc(N2C[C@H]3CC[C@@H](C2)[C@@H]3Nc2nc3n(n2)CCCC[C@H]3c2ccc(F)c(F)c2F)ncn1` [Example 15, (9S)—N-[(1R,5S,8S)-3-(6-methylpyrimidin-4-yl)-3-azabicyclo[3.2.1]octan-8-yl]-9-(2,3,4-trifluorophenyl)-6,7,8,9-tetrahydro-5H-[1,2,4]triazolo[1,5-a]azepin-2-amine], 8.4 nM.
Then `Fc1ccc(C2CCCCn3nc(N[C@@H]4[C@@H]5CC[C@H]4CN(c4cc(Cl)ncn4)C5)nc32)c(F)c1F` (mixture of isomers) [Example 17, N-[(1R,5S,8S)-3-(6-chloropyrimidin-4-yl)-3-azabicyclo[3.2.1]octan-8-yl]-9-(2,3,4-trifluorophenyl)-6,7,8,9-tetrahydro-5H-[1,2,4]triazolo[1,5-a]azepin-2-amine], with 17.7 nM; and `Cc1cc(N2C[C@H]3CC[C@@H](C2)[C@@H]3Nc2nc3n(n2)CCCC[C@H]3c2cccc(C(F)(F)F)c2)ncn1` [Example 12, (9S)—N-[(1R,5S,8S)-3-(6-methylpyrimidin-4-yl)-3-azabicyclo[3.2.1]octan-8-yl]-9-[3-(trifluoromethyl)phenyl]-6,7,8,9-tetrahydro-5H-[1,2,4]triazolo[1,5-a]azepin-2-amine], with 14.9 nM.
Then `FC(F)(F)c1cccc(C2CCCCn3nc(N[C@@H]4[C@@H]5CC[C@H]4CN(c4ccnc(C(F)(F)F)c4)C5)nc32)c1` (stereo partly drawn) [Example 10, 9-[3-(trifluoromethyl)phenyl]-N-[(1R,5S,8S)-3-[2-(trifluoromethyl)-4-pyridyl]-3-azabicyclo[3.2.1]octan-8-yl]-6,7,8,9-tetrahydro-5H-[1,2,4]triazolo[1,5-a]azepin-2-amine], with 33.7 nM; and `Cc1cc(N2C[C@H]3CC[C@@H](C2)[C@@H]3Nc2nc3n(n2)CCCC[C@@H]3c2ccc(Cl)cc2)ncn1` [Example 9, (9R)-9-(4-chlorophenyl)-N-[(1R,5S,8S)-3-(6-methylpyrimidin-4-yl)-3-azabicyclo[3.2.1]octan-8-yl]-6,7,8,9-tetrahydro-5H-[1,2,4]triazolo[1,5-a]azepin-2-amine], with 48.9 nM; and `Cc1cc(N2C[C@H]3CC[C@@H](C2)C3Nc2nc3n(n2)CCCC[C@@H]3c2ccc(C(F)(F)F)cc2)ncn1` (stereo partly drawn) [Example 5, (9R)—N-[(1R,5S)-3-(6-methylpyrimidin-4-yl)-3-azabicyclo[3.2.1]octan-8-yl]-9-[4-(trifluoromethyl)phenyl]-6,7,8,9-tetrahydro-5H-[1,2,4]triazolo[1,5-a]azepin-2-amine], with 11.6 nM.
